The numbers were not newly measured in patent publication US20240041741A1, “COSMETIC COMPOSITION OBTAINED BY MIXING TWO SILANE BLENDS” (Henkel AG & Co. KGaA, priority 2020, published 2024), which cites them from elsewhere.

For this series the following is noted: for solubility in water: 25° C.

With `O=S(=O)([O-])c1ccc(N=Nc2c(O)ccc3ccccc23)cc1.[Na+]` [Acid Orange 7, sodium salt of 4-[(2-hydroxy-1-naphthyl)azo]benzene sulphonate], the solubility in water result is listed as “more than 7 g/L”.
For `Nc1cc(S(=O)(=O)[O-])cc2cc(S(=O)(=O)[O-])c(N=Nc3ccccc3)c(O)c12.[Na+].[Na+]` [Acid Red 33, diantrium salt of 5-amino-4-hydroxy-3-(phenylazo)-naphthalene-2,7-disulphonate], the solubility in water is 2.5 mg/mL.
Regarding `O=C([O-])c1c(Cl)c(Cl)c(Cl)c(Cl)c1-c1c2c(Br)cc(=O)c(Br)c-2oc2c(Br)c(O)cc(Br)c12.O=C([O-])c1c(Cl)c(Cl)c(Cl)c(Cl)c1-c1c2c(Br)cc(=O)c(Br)c-2oc2c(Br)c(O)cc(Br)c12.[Na+].[Na+]` [Acid Red 92, disodium salt of 3,4,5,6-tetrachloro-2-(1,4,5,8-tetrabromo-6-hydroxy-3-oxoxanthen-9-yl)benzoic acid], the solubility in water result was “greater than 10 g/L”.
In the case of `O=C([O-])C1=NN(c2ccc(S(=O)(=O)[O-])cc2)C(=O)C1N=Nc1ccc(S(=O)(=O)[O-])cc1.[Na+].[Na+].[Na+]` (centres unmarked) [Acid Yellow 23, trisodium salt of 4,5-dihydro-5-oxo-1-(4-sulfophenyl)-4-((4-sulfophenyl)azo)-1H-pyrazole-3-carboxylic acid], the “solubility in water (in words)” value (at 25° C.) is recorded as “readily soluble in water”.
For the compound “mixture of the sodium salts of mono- and sisulfonic acids of 2-(2-quinolyl)-1H-indene-1,3(2H)-dione [Acid Yellow 3]”, the solubility in water was 20 mg/mL.
